Data reported in patent publication US4990499A, “Anti-herpes simplex virus activity of 5-alkoxymethyl-2'-deoxycytidimes and their 5-monophosphates” (priority 1989, dated 1991).
≈ marks a conversion by molar mass, not a printed value. Like-named read-outs stand apart in the source and are kept apart here.

Key:
[1] = system: HSV-1, KOS; test: HSV-1 KOS infectivity in Vero cells prior to washing of drugs; format: cell-based, Herpes simplex virus type 1; conditions: for Virus Infectivity (% of virus control): combination with H4 dUrd 530 μM
Procedure: Vero cells were infected with HSV-1, KOS strain and then treated with MMdCyd in various quantities, and also with MMdCyd in various quantities together with a constant amount of H4 dUrd. The virus infectivity was observed and the results are given in Table 5 and are shown graphically in FIG. 3.
^a Virus infectivity was scored using following parameters: rounding
of cells, plaque formation and loss of monolayer structure.
^b Concentration of H4 dUrd used was 530 μM (125 μg/ml).

[2] = system: Herpes simplex virus type 2 (HSV-2); test: Antiviral activity against HSV-2, viral plaque reduction (ED50); format: cell-based; conditions: 50 PFU
Procedure: (§1) Infected cells were treated with different concentrations of MMdCyd and the concentration required to reduce viral plaque formation by 50%, i.e. ED50, was determined.
(§2) ^a ED50 : Concentration required to reduce viral plaque formatio
(§3) The antiviral activity of MMdCyd in the presence of H4 dUrd was determined against several strains of HSV-1 and HSV-2.
^a Antiviral assays were carried out using Vero cells. Virus input 50
^b ED50 : Concentration required to reduce viral plaque formatio

[3] = Inhibition of proliferation (MTC), MT4 cells; format: cell-based; conditions: human, highest concentration tested
Procedure: (§4) Inhibitory effects of MMdCyd on the proliferation of murine and human tumor cells was also investigated. MTC for MMdCyd was greater than 400 μg/ml (highest concentration tested) against Raji, MOLT/4F, MT4, CEM and H-9 (human) and L1210 (murine Leukemia) cells.

[4] = Inhibition of proliferation (MTC), L1210 cells; format: cell-based, murine; conditions: mouse, highest concentration tested
Procedure: as §4

[5] = system: Herpes simplex virus type 1 (HSV-1); test: Antiviral activity against HSV-1, viral plaque reduction (ED50); format: cell-based
Procedure: as §1, §2
Vero cells were infected with the KOS strain of HSV-1. The compound of compounds indicated in Table 2, below, and are shown graphically in FIGS. 1, (H4 dUrd) and 2 (H4 Urd).
^a Antiviral assays were carried out using Vero cells. All compounds
were added immediately after virus infection.
as §3
Vero cells were infected with HSV-1, strain 76 and treated with MMdCyd at different times post virus infection.
(§5) The antiviral activity, ^a cyctotoxicity* and antiviral indices of MMdCyd in the presence of H4 dUrd, dGuo and H4 dUrd+dGuo were determined.
^a Antiviral assays were carried out using Vero cells. Compounds were
added immediately after virus infection. Virus HSV1, strains KOS and 76;
KOS, virus input = 50 PFU

[6] = system: Vero cells; test: Cytotoxicity (MTC), Vero cells; format: cell-based; conditions: monkey
Procedure: as §5
(§6) Minimum cytotoxic concentrations (MTC) for MMdCyd was greater than 1,000 μg/ml for RK-13, HEP-2 and Vero cells.
(§7) ^c MTC = Minimum toxic concentration concentration required to
(§8) produce definite evidence of microscopic toxicity on confluent monolayer

[7] = Cytotoxicity (MTC), Vero cells; format: cell-based; conditions: monkey
Procedure: as §5, §6, §7, §8

[8] = Cytotoxicity (MTC), RK-13 cells; format: cell-based; conditions: rabbit, read-out: minimum cytotoxic concentration (MTC)
Procedure: as §6, §7, §8

[9] = system: Deoxynucleoside Triphosphate (dNTP) Pools in Vero Cells Infected with Herpes Simplex Virus Type 1; test: Deoxynucleoside triphosphate (dNTP) pools in HSV-1 infected Vero cells; format: cell-based; conditions: Table 8, HSV-1 KOS infected Vero cells, 10 PFU/cell, treatment 7 hours, ± S.E.
Method in brief: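 Vero cells infected with HSV-1 KOS at 10 PFU/cell for one hour, then treated for seven hours with dGuo alone or dGuo plus H4 dUrd added right after adsorption. Intracellular dNTP pools then assayed, with untreated Vero cells as control.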

[10] = Inhibition of proliferation (MTC), CEM cells; format: cell-based; conditions: human, highest concentration tested
Procedure: as §4

[11] = Inhibition of proliferation (MTC), H-9 cells; format: cell-based; conditions: human, highest concentration tested
Procedure: as §4

[12] = system: HSV-1, KOS; test: HSV-1 KOS infectivity (virus yield) in Vero cells after removal of drugs; format: cell-based, Herpes simplex virus type 1; conditions: for Virus Infectivity (% of virus control): after drug removal, combination with H4 dUrd 530 μM, 4320 min
Procedure: Vero cells were infected with HSV-1, KOS strain and then samples of the infected cells were treated with MMdCyd in various quantities and with MMdCyd in various quantities together with 530 μM of H4 dUrd. Cells were washed twice with 0.4 ml of MEM to remove residual drug, overlaid with growth medium and incubated for 72 h. The virus was harvested by two cycles of freezing and thawing. The culture fluid from each treatment was pooled and assayed for virus yield.
^b H4 dUrd 530 μM (125 μg/ml) was added along with MMdCyd.

[13] = Inhibition of proliferation (MTC), MOLT/4F cells; format: cell-based; conditions: human, highest concentration tested
Procedure: as §4

[14] = Cytotoxicity (MTC), HEP-2 cells; format: cell-based; conditions: human, read-out: minimum cytotoxic concentration (MTC)
Procedure: as §6, §7, §8

With `COCc1cn([C@H]2C[C@H](O)[C@@H](CO)O2)c(=O)nc1N` [MMdCyd, 5-methoxymethyl-2'-deoxycytidine] as the compound, how does the “viral infectivity, conclusion” value ([1]; Example 7) read?
The value was “reduces viral infectivity”.

What about the “Virus Infectivity (% of virus control)” value ([1]; MMdCyd 1.6 μM) of the same compound?
The value was 90 % of virus control.

What about the “Virus Infectivity (% of virus control)” value ([1]; MMdCyd 3.2 μM) of the same compound?
Its value is 80 % of virus control.

And the “Virus Infectivity (% of virus control)” value ([1]; MMdCyd 6.4 μM)?
Its value is 66 % of virus control.

What about the “Virus Infectivity (% of virus control)” value ([1]; MMdCyd 12.8 μM) of the same compound?
The value was 64 % of virus control.

What about the “Virus Infectivity (% of virus control)” value ([1]; MMdCyd 25.6 μM) of the same compound?
The value was 45 % of virus control.

And the “Virus Infectivity (% of virus control)” value ([1]; MMdCyd 51.2 μM)?
The value was 32 % of virus control.

What about the “Virus Infectivity (% of virus control)” value ([1]; MMdCyd 104 μM) of the same compound?
The value was 20 % of virus control.

And the “Virus Infectivity (% of virus control)” value ([1]; MMdCyd 208 μM)?
The value was 9 % of virus control.

And the “Virus Infectivity (% of virus control)” value ([1]; MMdCyd 416 μM)?
The value was 0 % of virus control.

And the “Virus Infectivity (% of virus control)” value ([1]; MMdCyd 832 μM)?
Its value is 0 % of virus control.

What about the “production of infectious virus particles” value ([1]; combination: MMdCyd >12 μM with H4 dUrd (printed 530 M)) of the same compound?
Its value is “significantly decreased”.

And the EC50 ([2]; HSV-2 333, Vero)?
The EC50 was 175 µM.

What about the EC50 ([2]; HSV-2 MS, Vero) of the same compound?
Its EC50 is 228 µM.

What about the EC50 ([2]; HSV-2 X-265, Vero) of the same compound?
Its EC50 is 130 µM.

And the MCC [3]?
Its MCC is greater than 400 µg/mL.

What about the MCC [4] of the same compound?
The MCC was greater than 400 µg/mL.

And the ED50 [5]?
Its ED50 is 6 to 12 µg/mL.

And the ED50 ([5]; FIG. 6, after preincubating cells 3 hours with 25 μm dUrd, then washing)?
The ED50 was 21 µg/mL (≈ 77.4 µM).

What about the ED50 ([5]; FIG. 6, with 25 μM dUrd added simultaneously) of the same compound?
The ED50 was 38 µg/mL (≈ 140 µM).

And the EC50 ([5]; HSV-1 76, Vero, 50 PFU, added 4 hours post infection, read-out: ED50 (the source's name))?
The EC50 was 28 µM.

What about the EC50 ([5]; HSV-1 76, Vero, 50 PFU, added 6 hours post infection, read-out: ED50 (the source's name)) of the same compound?
The EC50 was 32 µM.

And the EC50 ([5]; HSV-1 (strain cell empty, under NAH), RK-13, 10 PFU, read-out: ED50 (the source's name))?
Its EC50 is 3 µM.

What about the EC50 ([5]; HSV-1, Vero and HEP-2 cells, read-out: ED50 (the source's name)) of the same compound?
Its EC50 is 14 to 26 µM.

What about the EC50 ([5]; HSV-1 KOS, Vero, 20 PFU, read-out: ED50 (the source's name)) of the same compound?
Its EC50 is 14 µM.

What about the EC50 ([5]; HSV-1 KOS, Vero, 50 PFU, read-out: ED50 (the source's name)) of the same compound?
Its EC50 is 26 µM.

And the EC50 ([5]; HSV-1 NAH, Vero, 50 PFU, read-out: ED50 (the source's name))?
The EC50 was 66 µM.

And the “activity against thymidine kinase negative strain” value ([5]; HSV--TK^-)?
Its value is “lack of activity”.

And the “ED50, average value” ([5]; Table 11, Vero, HSV-1 KOS and 76, 50-100 PFU, H4 dUrd 12 μg/ml, dGuo 25-30 μg/ml, average)?
Its value is 8 µg/mL (≈ 29.5 µM).

What about the “A.I (antiviral index, MTC divided by ED50)” value ([5]; monkey, vero cells) of the same compound?
Its value is greater than 125.

And the EC50 ([5]; read-out: ED50, HSV-1 TK, Vero, 10 PFU, highest concentration tested)?
Its EC50 is greater than 833 µM.

What about the EC50 ([5]; read-out: ED50, HSV-1 TK, Vero, 50 PFU, highest concentration tested) of the same compound?
The EC50 was greater than 833 µM.

What about the antiherpes activity ([5]; summary statement) of the same compound?
Its antiherpes activity is “potent and selective antiherpes agent”.

What about the “ED50 on delayed treatment compared with one hour post virus infection” value ([5]; treatment delayed 4 to 6 hours post infection) of the same compound?
The value was “essentially similar”.

And the “MTC (minimum toxic concentration)” value [6]?
Its value is > 1,000 μg/ml.

What about the MCC [7] of the same compound?
Its MCC is greater than 1000 µg/mL.

What about the MCC [8] of the same compound?
Its MCC is greater than 1000 µg/mL.

And the dATP pool [9]?
Its dATP pool is 25.2 ± 0.49 .rho.moles/10^6 cells.

And the dCTP pool [9]?
The dCTP pool was 29.6 ± 1.85 .rho.moles/10^6 cells.

What about the dGTP pool [9] of the same compound?
The dGTP pool was 72.6 ± 2.07 .rho.moles/10^6 cells.

And the dTTP pool [9]?
The dTTP pool was 1072 ± 11.2 .rho.moles/10^6 cells.

And the MCC [10]?
Its MCC is greater than 400 µg/mL.

What about the MCC [11] of the same compound?
Its MCC is greater than 400 µg/mL.

What about the “effectiveness against the virus, conclusion” value ([12]; Example 8) of the same compound?
Its value is “effective against the virus”.

What about the “Virus Infectivity (% of virus control)” value ([12]; MMdCyd 1.6 μM) of the same compound?
The value was 100 % of virus control.

And the “Virus Infectivity (% of virus control)” value ([12]; MMdCyd 3.2 μM)?
Its value is 99 % of virus control.

And the “Virus Infectivity (% of virus control)” value ([12]; MMdCyd 6.4 μM)?
Its value is 99 % of virus control.

What about the “Virus Infectivity (% of virus control)” value ([12]; MMdCyd 12.8 μM) of the same compound?
Its value is 99 % of virus control.

And the “Virus Infectivity (% of virus control)” value ([12]; MMdCyd 25.6 μM)?
Its value is 99 % of virus control.

What about the “Virus Infectivity (% of virus control)” value ([12]; MMdCyd 51.2 μM) of the same compound?
The value was 70 % of virus control.

And the “Virus Infectivity (% of virus control)” value ([12]; MMdCyd 104 μM)?
The value was 55 % of virus control.

What about the “Virus Infectivity (% of virus control)” value ([12]; MMdCyd 208 μM) of the same compound?
The value was 40 % of virus control.

What about the “Virus Infectivity (% of virus control)” value ([12]; MMdCyd 416 μM) of the same compound?
The value was 20 % of virus control.

And the “Virus Infectivity (% of virus control)” value ([12]; MMdCyd 832 μM)?
Its value is 10 % of virus control.

What about the “virus infectivity after washing of drugs” value ([12]; less than 26 μM MMdCyd) of the same compound?
Its value is “no decrease in virus infectivity”.

And the MCC [13]?
Its MCC is greater than 400 µg/mL.

What about the MCC [14] of the same compound?
The MCC was greater than 1000 µg/mL.
